Data: ChEMBL document CHEMBL5038628, “Discovery of spiro amide SHR902275: A potent, selective, and efficacious RAF inhibitor targeting RAS mutant cancers” (Eur J Med Chem, 2022)
In brackets after ≈: the same amount, converted by molar mass. Activity calls are given as the source filed them. No cut-off for these calls is given here.

Columns and labels:
[1] = Cmax in Sprague-Dawley rat plasma assessed as parent compound at 121 mg/kg, IG by LC-MS/MS analysis; format: ADME, organism-based; design: route […], dose 121 mg/kg; conditions: in vivo, po
[2] = Cmax in Sprague-Dawley rat assessed as parent compound at 24 mg/kg, IG by LC-MS/MS analysis; format: ADME, organism-based, Plasma; design: route […], dose 24 mg/kg; conditions: in vivo, po
[3] = AUC (0-t) in Sprague-Dawley rat plasma assessed as parent compound at 121 mg/kg, IG by LC-MS/MS analysis; format: ADME, organism-based; design: dose 121 mg/kg; conditions: in vivo, po
[4] = AUC (0 to t) in Sprague-Dawley rat plasma at 2 mg/kg, IG by LC-MS/MS analysis; format: ADME, organism-based; design: dose 2 mg/kg; conditions: po
[5] = Clearance in C57 mouse at 1 mg/kg, iv; format: ADME, organism-based; conditions: in vivo
[6] = Half life in C57 mouse at 1 mg/kg, iv; format: ADME, organism-based; conditions: in vivo
[7] = Cmax in Sprague-Dawley rat plasma at 2 mg/kg, IG by LC-MS/MS analysis; format: ADME, organism-based; design: route […], dose 2 mg/kg; conditions: po
[8] = Fraction unbound in rat plasma; format: ADME, cell-free
[9] = Metabolic stability in rat liver microsomes assessed as half life; format: ADME, Microsome
[10] = Fraction unbound in mouse plasma; format: ADME, cell-free
[11] = biological target: Serine/threonine-protein kinase B-raf (Homo sapiens, UniProt P15056); test: Inhibition of human recombinant wild type BRAF measured after 60 mins by TR-FRET assay
[12] = Cmax in C57 mouse at 2 mg/kg, IG; format: ADME, organism-based; design: route […], dose 2 mg/kg; conditions: in vivo, po
[13] = Fraction unbound in human plasma; format: ADME, cell-free
[14] = Oral bioavailability in Sprague-Dawley rat by LC-MS/MS analysis; format: ADME, organism-based; conditions: in vivo
SK-MEL-2 = test: Cytotoxicity against human SK-MEL-2 cells assessed as inhibition of growth measured after 72 hrs by CellTiter-Glo luciferase assay; format: functional
[15] = Cmax in Sprague-Dawley rat plasma at 20 mg/kg, IG by LC-MS/MS analysis; format: ADME, organism-based; design: route […], dose 20 mg/kg; conditions: po
[16] = AUC (0 to t) in Sprague-Dawley rat plasma at 20 mg/kg, IG by LC-MS/MS analysis; format: ADME, organism-based; design: dose 20 mg/kg; conditions: po
[17] = Toxicity in nude mouse assessed as reduction in body weight measured at 5 to 30 mg/kg,IT BID for 14 days; format: organism-based; conditions: in vivo, other, 336 h, dose 5-30 mg/kg, time 14 day
[18] = biological target: Serine/threonine-protein kinase B-raf (Homo sapiens, UniProt P15056, V600E); test: Inhibition of human recombinant BRAF V600E mutant measured after 60 mins by TR-FRET assay
[19] = Clearance in Sprague-Dawley rat plasma at 1 mg/kg, iv by LC-MS/MS analysis; format: ADME, organism-based
A-375 = test: Cytotoxicity against human A-375 cells assessed as inhibition of growth measured after 72 hrs by CellTiter-Glo luciferase assay; format: functional
Calu-6 [20] = test: Antitumor activity against human Calu-6 cells xenografted in nude mouse assessed as tumor growth inhibition at 5 to 30 mg/kg,IT BID for 14 days relative to control; format: functional, organism-based; conditions: dose 5-30 mg/kg, time 14.0 day
Calu-6 [21] = test: Cytotoxicity against human Calu-6 cells assessed as inhibition of growth measured after 72 hrs by CellTiter-Glo luciferase assay; format: functional
[22] = biological target: T1, Eukaryotic translation initiation factor 2-alpha kinase 3 (Homo sapiens) (UniProt Q9NZJ5); test: Inhibition of human His-tagged PERK by TR-FRET assay
T1 sequence (whole entry): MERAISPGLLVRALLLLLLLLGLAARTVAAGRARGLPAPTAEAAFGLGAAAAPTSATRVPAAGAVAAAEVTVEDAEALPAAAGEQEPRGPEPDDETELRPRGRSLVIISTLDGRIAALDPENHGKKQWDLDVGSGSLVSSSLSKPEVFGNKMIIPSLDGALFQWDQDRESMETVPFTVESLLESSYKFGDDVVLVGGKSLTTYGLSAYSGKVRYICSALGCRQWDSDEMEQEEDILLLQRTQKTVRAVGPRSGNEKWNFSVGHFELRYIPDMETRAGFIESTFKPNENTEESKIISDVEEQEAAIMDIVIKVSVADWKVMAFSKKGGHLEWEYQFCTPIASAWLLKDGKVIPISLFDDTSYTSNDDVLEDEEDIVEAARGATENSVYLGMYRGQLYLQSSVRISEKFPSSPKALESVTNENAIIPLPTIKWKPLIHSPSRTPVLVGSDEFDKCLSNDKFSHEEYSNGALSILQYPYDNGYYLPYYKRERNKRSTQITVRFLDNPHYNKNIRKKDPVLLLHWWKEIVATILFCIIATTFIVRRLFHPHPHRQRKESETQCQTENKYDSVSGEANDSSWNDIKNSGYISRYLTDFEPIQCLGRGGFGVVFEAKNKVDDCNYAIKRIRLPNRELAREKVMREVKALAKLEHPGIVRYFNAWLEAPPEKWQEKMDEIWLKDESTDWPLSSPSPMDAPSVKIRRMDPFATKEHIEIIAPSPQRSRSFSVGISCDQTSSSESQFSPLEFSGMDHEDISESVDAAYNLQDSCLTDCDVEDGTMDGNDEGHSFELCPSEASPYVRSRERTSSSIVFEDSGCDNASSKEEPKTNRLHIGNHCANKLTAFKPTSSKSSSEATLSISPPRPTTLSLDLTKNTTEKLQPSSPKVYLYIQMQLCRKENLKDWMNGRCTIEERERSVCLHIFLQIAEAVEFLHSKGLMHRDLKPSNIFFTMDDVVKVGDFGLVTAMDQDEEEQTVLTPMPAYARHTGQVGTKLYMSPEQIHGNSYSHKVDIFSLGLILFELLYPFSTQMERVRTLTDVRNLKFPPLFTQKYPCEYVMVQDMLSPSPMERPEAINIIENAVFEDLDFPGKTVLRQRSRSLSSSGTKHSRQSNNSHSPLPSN

[23] = Half life in Sprague-Dawley rat plasma at 1 mg/kg, iv by LC-MS/MS analysis; format: ADME, organism-based; conditions: Sprague-Dawley, plasma
[24] = biological target: RAF proto-oncogene serine/threonine-protein kinase (Homo sapiens, UniProt P04049); test: Inhibition of human recombinant cRAF measured after 60 mins by TR-FRET assay
[25] = Oral bioavailability in C57 mouse; format: ADME, organism-based; conditions: in vivo
NCI-H358 = test: Cytotoxicity against human NCI-H358 cells assessed as inhibition of growth measured after 72 hrs by CellTiter-Glo luciferase assay; format: functional
[26] = AUC (0 to t) in C57 mouse at 2 mg/kg, IG; format: ADME, organism-based; design: dose 2 mg/kg; conditions: in vivo, po
[27] = Metabolic stability in human liver microsomes assessed as half life; format: ADME, Microsome
[28] = Metabolic stability in mouse liver microsomes assessed as half life; format: ADME, Microsome
Cytochrome P450 3A4 [29] = biological target: T2, Cytochrome P450 3A4 (Homo sapiens, UniProt P08684); test: Inhibition of CYP3A4 (unknown origin) using testosterone as substrate
Cytochrome P450 1A2 = biological target: T3, Cytochrome P450 1A2 (Homo sapiens, UniProt P05177); test: Inhibition of CYP1A2 (unknown origin)
T3 sequence (P05177 whole entry): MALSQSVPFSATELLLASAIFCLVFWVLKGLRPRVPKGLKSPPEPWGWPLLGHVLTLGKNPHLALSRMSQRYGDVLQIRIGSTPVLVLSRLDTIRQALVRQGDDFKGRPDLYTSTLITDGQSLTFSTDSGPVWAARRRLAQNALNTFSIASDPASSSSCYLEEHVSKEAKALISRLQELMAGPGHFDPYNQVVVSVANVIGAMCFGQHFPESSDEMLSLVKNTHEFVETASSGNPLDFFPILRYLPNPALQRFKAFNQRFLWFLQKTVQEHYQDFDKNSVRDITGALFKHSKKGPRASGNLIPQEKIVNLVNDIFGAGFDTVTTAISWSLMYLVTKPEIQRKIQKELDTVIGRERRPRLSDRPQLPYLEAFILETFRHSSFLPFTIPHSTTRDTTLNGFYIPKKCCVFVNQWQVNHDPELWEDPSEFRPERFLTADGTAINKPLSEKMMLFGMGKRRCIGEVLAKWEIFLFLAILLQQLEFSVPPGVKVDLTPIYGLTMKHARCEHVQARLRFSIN

[30] = biological target: Voltage-gated inwardly rectifying potassium channel KCNH2 (Homo sapiens, UniProt Q12809)
Cytochrome P450 2C9 = Cytochrome P450 2C9 (Homo sapiens, UniProt P11712); test: Inhibition of CYP2C9 (unknown origin)
Calu-6 [31] = test: Antitumor activity against human Calu-6 cells xenografted in nude mouse assessed as tumor growth inhibition at 30 mg/kg,IT QD for 12 days relative to control; format: functional; conditions: Calu-6, 288 h, time 12 day, read-out: TGI
Cytochrome P450 3A4 [32] = biological target: T2, Cytochrome P450 3A4; test: Inhibition of CYP3A4 (unknown origin) using midazolam as substrate
[33] = Apparent permeability across apical to basolateral membrane in human Caco-2 cells
Cytochrome P450 2D6 = Cytochrome P450 2D6 (Homo sapiens, UniProt P10635); test: Inhibition of CYP2D6 (unknown origin)
[34] = Apparent permeability across basolateral to apical membrane in human Caco-2 cells
Cytochrome P450 2C19 = Cytochrome P450 2C19 (Homo sapiens, UniProt P33261); test: Inhibition of CYP2C19 (unknown origin)
[35] = Solubility of the compound at pH 7.4; conditions: buffer
P-gp (ABCB1) = P-gp (ABCB1) (Homo sapiens, UniProt P08183); test: Substrate activity at P-gp in human Caco-2 cells assessed as efflux ratio of permeability
Chain of P-gp (ABCB1) (P08183 whole entry): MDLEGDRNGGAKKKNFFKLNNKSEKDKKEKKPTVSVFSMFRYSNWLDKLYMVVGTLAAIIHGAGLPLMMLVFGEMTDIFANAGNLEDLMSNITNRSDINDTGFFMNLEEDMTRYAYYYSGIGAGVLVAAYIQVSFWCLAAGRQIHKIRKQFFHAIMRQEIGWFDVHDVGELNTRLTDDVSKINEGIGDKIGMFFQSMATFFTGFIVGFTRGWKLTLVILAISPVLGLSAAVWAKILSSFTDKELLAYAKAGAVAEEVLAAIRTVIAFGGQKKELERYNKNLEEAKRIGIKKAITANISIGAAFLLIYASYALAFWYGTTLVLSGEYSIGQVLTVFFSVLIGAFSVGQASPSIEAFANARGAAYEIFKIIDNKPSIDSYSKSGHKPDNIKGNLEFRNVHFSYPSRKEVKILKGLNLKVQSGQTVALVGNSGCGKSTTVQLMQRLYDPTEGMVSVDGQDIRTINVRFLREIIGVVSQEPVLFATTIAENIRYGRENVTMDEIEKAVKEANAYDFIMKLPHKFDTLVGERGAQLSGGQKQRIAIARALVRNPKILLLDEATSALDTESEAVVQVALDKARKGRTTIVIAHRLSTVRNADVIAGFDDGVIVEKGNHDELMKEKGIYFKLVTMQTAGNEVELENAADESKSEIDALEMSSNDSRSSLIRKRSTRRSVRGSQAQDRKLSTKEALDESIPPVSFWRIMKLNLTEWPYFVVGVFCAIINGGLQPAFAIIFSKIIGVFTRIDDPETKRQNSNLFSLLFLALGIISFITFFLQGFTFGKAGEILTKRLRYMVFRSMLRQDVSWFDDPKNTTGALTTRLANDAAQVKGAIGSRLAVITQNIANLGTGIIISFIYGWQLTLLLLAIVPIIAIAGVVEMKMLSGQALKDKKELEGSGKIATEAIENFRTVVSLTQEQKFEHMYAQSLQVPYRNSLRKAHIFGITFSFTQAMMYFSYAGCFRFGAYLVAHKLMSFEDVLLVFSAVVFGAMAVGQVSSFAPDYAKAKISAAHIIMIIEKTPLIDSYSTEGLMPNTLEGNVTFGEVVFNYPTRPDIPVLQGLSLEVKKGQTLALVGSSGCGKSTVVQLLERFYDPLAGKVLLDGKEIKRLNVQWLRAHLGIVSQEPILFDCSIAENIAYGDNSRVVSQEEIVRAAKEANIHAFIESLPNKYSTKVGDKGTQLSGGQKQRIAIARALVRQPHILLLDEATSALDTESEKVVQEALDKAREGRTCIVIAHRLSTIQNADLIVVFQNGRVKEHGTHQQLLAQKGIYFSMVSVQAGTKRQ

Chain of RAF proto-oncogene serine/threonine-protein kinase (P04049 whole entry): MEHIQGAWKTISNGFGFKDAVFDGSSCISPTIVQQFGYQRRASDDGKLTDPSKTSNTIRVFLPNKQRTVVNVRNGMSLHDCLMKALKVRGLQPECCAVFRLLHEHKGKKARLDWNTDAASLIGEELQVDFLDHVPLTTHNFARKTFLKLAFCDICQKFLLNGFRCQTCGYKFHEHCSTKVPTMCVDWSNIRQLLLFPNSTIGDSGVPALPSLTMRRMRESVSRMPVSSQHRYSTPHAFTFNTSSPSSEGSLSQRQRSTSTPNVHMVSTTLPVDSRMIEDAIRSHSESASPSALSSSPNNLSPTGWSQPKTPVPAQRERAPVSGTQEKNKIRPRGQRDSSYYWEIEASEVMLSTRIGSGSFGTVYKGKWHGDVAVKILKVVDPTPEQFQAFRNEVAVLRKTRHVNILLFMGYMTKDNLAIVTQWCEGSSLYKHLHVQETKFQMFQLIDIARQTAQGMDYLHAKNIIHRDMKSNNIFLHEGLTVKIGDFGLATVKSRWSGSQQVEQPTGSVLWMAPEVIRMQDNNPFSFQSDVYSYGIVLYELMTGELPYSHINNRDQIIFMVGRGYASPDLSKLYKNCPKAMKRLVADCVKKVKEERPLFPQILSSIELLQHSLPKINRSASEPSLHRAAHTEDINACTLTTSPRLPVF
T2 sequence (P08684 whole entry): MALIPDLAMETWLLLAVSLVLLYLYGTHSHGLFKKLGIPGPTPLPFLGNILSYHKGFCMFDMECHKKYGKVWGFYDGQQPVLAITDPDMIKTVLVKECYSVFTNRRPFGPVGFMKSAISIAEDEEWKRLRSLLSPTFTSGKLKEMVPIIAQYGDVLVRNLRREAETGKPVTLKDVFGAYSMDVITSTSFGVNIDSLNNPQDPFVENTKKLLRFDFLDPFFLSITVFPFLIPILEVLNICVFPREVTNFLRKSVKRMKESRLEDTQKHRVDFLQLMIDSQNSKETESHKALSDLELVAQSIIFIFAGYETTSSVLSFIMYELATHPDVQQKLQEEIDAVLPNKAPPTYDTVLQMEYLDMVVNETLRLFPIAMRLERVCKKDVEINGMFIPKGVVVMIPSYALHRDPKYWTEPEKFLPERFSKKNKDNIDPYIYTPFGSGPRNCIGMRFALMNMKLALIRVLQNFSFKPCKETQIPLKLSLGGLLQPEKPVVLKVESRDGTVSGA
Chain of Serine/threonine-protein kinase B-raf (Homo sapiens, UniProt P15056) (P15056 whole entry): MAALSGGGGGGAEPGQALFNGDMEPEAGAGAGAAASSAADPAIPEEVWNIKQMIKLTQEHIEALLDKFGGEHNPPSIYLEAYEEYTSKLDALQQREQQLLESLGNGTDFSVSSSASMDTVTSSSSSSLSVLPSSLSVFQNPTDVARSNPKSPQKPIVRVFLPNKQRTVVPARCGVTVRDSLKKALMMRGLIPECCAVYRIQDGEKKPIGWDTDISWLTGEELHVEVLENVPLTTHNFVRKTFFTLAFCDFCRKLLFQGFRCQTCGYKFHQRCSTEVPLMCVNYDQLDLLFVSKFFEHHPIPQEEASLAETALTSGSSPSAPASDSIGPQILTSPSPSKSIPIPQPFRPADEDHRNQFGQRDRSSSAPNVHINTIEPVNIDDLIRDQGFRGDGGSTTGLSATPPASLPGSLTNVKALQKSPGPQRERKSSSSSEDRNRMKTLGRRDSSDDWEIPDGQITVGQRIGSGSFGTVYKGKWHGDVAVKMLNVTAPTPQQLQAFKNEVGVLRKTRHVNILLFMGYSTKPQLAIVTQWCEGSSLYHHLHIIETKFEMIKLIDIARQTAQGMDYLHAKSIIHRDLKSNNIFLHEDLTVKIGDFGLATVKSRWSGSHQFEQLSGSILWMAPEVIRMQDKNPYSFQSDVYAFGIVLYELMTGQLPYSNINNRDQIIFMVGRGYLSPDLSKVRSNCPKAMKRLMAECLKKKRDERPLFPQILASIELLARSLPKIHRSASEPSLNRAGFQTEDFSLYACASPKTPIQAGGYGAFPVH
Chain of Serine/threonine-protein kinase B-raf (Homo sapiens, UniProt P15056, V600E) (P15056 2-766 V600E limits assumed): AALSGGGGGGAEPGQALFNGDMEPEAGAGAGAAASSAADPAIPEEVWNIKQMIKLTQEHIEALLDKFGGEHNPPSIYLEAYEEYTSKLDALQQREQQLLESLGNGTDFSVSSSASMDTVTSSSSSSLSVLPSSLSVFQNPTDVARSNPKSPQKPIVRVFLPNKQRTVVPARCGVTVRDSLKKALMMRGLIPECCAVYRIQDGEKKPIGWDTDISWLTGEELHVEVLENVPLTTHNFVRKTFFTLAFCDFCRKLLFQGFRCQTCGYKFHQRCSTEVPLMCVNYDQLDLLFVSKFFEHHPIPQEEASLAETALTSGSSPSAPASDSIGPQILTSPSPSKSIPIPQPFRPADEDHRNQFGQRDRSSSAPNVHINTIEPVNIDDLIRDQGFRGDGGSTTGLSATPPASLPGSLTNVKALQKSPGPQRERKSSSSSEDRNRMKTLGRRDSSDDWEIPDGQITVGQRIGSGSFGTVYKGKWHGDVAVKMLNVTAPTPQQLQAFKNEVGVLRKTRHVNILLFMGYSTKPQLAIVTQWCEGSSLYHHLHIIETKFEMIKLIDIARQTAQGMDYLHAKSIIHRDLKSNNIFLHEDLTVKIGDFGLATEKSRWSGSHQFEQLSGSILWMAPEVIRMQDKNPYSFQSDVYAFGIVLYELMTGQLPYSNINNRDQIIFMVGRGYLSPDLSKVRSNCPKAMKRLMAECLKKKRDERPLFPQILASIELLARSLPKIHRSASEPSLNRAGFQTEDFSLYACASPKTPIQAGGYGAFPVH
Chain of Cytochrome P450 2D6 (P10635 whole entry): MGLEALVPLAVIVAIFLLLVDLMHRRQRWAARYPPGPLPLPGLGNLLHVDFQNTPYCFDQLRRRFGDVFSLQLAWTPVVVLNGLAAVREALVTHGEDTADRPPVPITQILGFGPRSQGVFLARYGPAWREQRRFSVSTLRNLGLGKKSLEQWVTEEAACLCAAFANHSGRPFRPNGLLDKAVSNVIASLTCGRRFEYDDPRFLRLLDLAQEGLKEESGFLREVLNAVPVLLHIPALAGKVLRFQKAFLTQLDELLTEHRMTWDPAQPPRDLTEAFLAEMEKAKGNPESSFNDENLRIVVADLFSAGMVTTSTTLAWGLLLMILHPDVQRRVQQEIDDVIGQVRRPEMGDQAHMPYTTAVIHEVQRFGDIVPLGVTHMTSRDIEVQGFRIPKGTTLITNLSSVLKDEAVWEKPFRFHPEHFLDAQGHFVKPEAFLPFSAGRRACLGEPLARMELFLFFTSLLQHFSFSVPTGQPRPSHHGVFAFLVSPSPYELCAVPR
Chain of Cytochrome P450 2C19 (P33261 whole entry): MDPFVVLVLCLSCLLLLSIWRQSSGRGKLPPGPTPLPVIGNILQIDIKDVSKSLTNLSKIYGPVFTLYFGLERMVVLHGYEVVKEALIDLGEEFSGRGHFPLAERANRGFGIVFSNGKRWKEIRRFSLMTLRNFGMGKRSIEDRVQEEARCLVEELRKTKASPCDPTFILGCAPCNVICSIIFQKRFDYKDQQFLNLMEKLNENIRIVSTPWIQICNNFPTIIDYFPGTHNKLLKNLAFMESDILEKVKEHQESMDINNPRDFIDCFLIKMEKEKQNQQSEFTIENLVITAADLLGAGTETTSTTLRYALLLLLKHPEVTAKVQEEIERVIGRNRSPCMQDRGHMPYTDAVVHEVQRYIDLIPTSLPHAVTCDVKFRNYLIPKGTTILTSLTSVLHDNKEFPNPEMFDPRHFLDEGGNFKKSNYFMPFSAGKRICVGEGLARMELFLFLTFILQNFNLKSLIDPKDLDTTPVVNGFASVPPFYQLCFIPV

Cc1ccc(NC(=O)c2cc(C(F)(F)F)cnn2)cc1-c1ccc2c(c1)OC1(CCOCC1)CC(=O)N2COP(=O)(O)O
Cmax [1]: 10.74 µg/mL | Cmax [2]: 2.848 µg/mL | AUCt [3]: 132.78 µg·h/mL

Cc1ccc(NC(=O)c2cc(C(F)(F)F)cnn2)cc1-c1ccc2c(c1)OC1(CCOCC1)CC(=O)N2
AUC(0-t) ([4]; Sprague-Dawley, plasma): 4.7 µg·h/mL | clearance [5]: 0.408 L/h/kg | half-life [6]: 3.6 h | Cmax [7]: 0.956 µg/mL | fraction unbound [8]: 0.06 | half-life [9]: 1.24 h | fraction unbound [10]: 0.018 | IC50 [11]: 0.01 µM | Cmax [12]: 0.953 µg/mL | fraction unbound [13]: 0.006 | bioavailability ([14]; Sprague-Dawley): 101% | GI50 (SK-MEL-2): 0.32 µM | Cmax [15]: 2.81 µg/mL | AUC(0-t) [16]: 21.8 µg·h/mL | Activity [17]: Non-Toxic | IC50 [18]: 0.0057 µM | clearance [19]: 0.432 L/h/kg | GI50 (A-375): 0.17 µM | TGI (Calu-6 [20]): Dose-Dependent Effect | GI50 (Calu-6 [21]): 0.4 µM | inhibition [22]: Active | half-life [23]: 1.6 h | IC50 [24]: 0.0016 µM | bioavailability [25]: 112% | GI50 (NCI-H358): 1.4 µM | AUC(0-t) [26]: 5.41 µg·h/mL | half-life [27]: 1.77 h | half-life [28]: > 2.32 h

Cc1ccc(NC(=O)c2ccnc(C(F)(F)F)c2)cc1-c1ccc2c(c1)OC1(CCOCC1)CC(=O)N2
AUCt ([4]; in vivo): 0.00312 µg·h/mL | Cmax [7]: 0.0473 µg/mL | IC50 (Cytochrome P450 3A4 [29]): 13.2 µM | fraction unbound [8]: 0.009 | half-life [9]: 0.748 h | fraction unbound [10]: 0.012 | IC50 [11]: 0.012 µM | IC50 (Cytochrome P450 1A2): > 30 µM | fraction unbound [13]: 0.004 | F [14]: 18.7% | IC50 [30]: 3 µM | IC50 (Cytochrome P450 2C9): 10.3 µM | inhibition in vivo at 30 mg/kg (Calu-6 [31]): 41% | IC50 (Cytochrome P450 3A4 [32]): > 30 µM | GI50 (SK-MEL-2): 0.23 µM | Papp A→B [33]: 157 nm/s | IC50 [18]: 0.011 µM | IC50 (Cytochrome P450 2D6): > 30 µM | GI50 (A-375): 0.15 µM | Papp B→A [34]: 398 nm/s | IC50 (Cytochrome P450 2C19): > 30 µM | GI50 (Calu-6 [21]): 0.35 µM | IC50 [24]: 0.0051 µM | solubility [35]: 0.9 µM (≈ 0.46 µg/mL) | GI50 (NCI-H358): 1.7 µM | half-life [27]: 2.32 h | efflux ratio (P-gp (ABCB1)): 2.53 | half-life [28]: > 2.32 h
